Experimental data reported in patent US10933038B2, “Use of (benzenesulfonamido) benzamide compounds for inhibiting liver fibrosis” (Hebei Medfaith Pharmaceutical Technology Co., Ltd., priority 2015, dated 2021).

Tests used:
Kunming mice = assay: safety in Kunming mice, single intragastric dose, 14 days observation; type: in vivo; settings: 50-2000 mg/kg; for change in body weight (relative body weight Day 14/Day 1): 14 days after administration; for death / signs of intoxication: 14 days observation
Experimental: In the example, the compounds 16-4 and 17-15 were tested for their safety in Kunming mice.
Kunming mice (with a body weight of 18-22 g) were randomly divided into control group, 16-4 administration group, and 17-15 administration group, with 4 mice for each group, administered at a dose of 0 mg/kg, 50 mg/kg, 500 mg/kg, 1000 mg/kg and 2000 mg/kg. At the first day of experiment, drugs were intragastrically administered to 16-4 administration group and 17-15 administration group, and normal saline was administered to control group. The body weight and physical conditions of mice (for example, being short of breath or not, having bleeding spots in skin or not, etc.) and whether mice died or not were recorded every day. After observation for 14 days, the mice were sacrificed.

COL1A1 promoter = assay: dual-luciferase reporter assay of COL1A1 promoter activity in LX2 cells; type: cell-based, human; settings: TGF-β1 2 ng/ml, 1, 5 and 10 μmol/L, 24 h
Experimental: At 37° C., 5% CO2, human hepatic stellate cells LX2 were cultured in DMEM medium containing 10% fetal bovine serum (Gibco). After the cells reached a confluence of about 95%, the cells were spread onto a 96-well plate at 2×10^4 cells per well. After the cells reached a confluence of about 90%, the cells were subjected to serum-free culture in DMEM medium (Gibco) containing no fetal bovine serum for 24 h. […] The cells were further cultured for 24 h. In accordance with the operations described in the instruction of Dual-Glo™ Luciferase Assay System, the medium was discarded, and the cells were washed with PBS once. Cells were lysed by the addition of 1×PLB (20 μL/well) (within 15 min), luciferase substrate (50 μL/well) was added for assay, and a stop solution (50 μL/well) was added for assay.

TGF-β1-induced LX2 cells [1] = assay: Western blot assay in TGF-β1-induced LX2 cells; type: cell-based, human; settings: TGF-β1 (2 ng/ml)-induced LX2 cells, 1, 5 and 10 μmmol/L, 24 h
Experimental: (§1) In DMEM (Gibco) medium containing 10% fetal bovine serum, LX2 cells were cultured at 37° C., 5% CO2. The cells were spread on a 6-well plate at 1×10^5 cells per well. After culture for 24 h, the original medium was discarded, the cells were washed with PBS once, and DMEM (Gibco) medium without 10% fetal bovine serum was added. […] After further culture for 24 h, the samples were taken.
Proteins in LX2 cells were extracted with RAPI lysis solution (containing 1% PMSF), and the protein concentration was determined by BCA method. The sample was loaded at 20 μg/20 μL, subjected to polyacrylamide gel electrophoresis, transferred to a membrane, blocked with 5% skim milk, incubated with a primary antibody, washed with PBST, incubated with a secondary antibody, and imaged with ChemiImager 5500 imaging system.

TGF-β1-induced LX2 cells [2] = assay: real-time PCR assay in TGF-β1-induced LX2 cells; type: cell-based, human; settings: TGF-β1 (2 ng/ml)-induced LX2 cells, 1, 5 and 10 μmmol/L, 24 h
Experimental: as §1
In accordance with the TRizol method, the total RNA in LX2 cells were extracted, and in accordance with the operations described in the instruction of Roche Transcriptor First Strand cDNA Synthesis Kit, the total RNA of LX2 was reverse transcribed into cDNA. The cDNA obtained, sterile water, Roche FastStart Universal Probe Master (Rox) and ABI TaqMan probes (COL1A1, TGF-β1, MMP2) were used to prepare a 20 μL reaction system, which was analyzed by ABI 7500 Fast Real-Time PCR System.

BDL model rat [3] = assay: Masson staining of liver tissue of BDL rats; type: in vivo; settings: 100 mg/kg i.p., 14 days
Experimental: (§2) SD male rats (with a body weight of 180-200 g) were randomly divided into sham operation group, BDL model group and 16-4 administration group, wherein sham operation group included 6 rats, BDL model group included 8 rats, and 16-4 administration group included 6 rats. Animals were fasted for 12 hours before surgery. After anesthetization with isoflurane, the abdomen of rat was opened under aseptic conditions, the liver was lifted, the duodenum was pulled aside, and 2-3 cm common bile duct was separate. Ligations were performed twice with silk thread No. 000 at the place proximal to duodenum and the place proximal to porta hepatis, respectively. The common bile duct was cut off at the middle of the two ligation places. After the liver was put back, the cut was sutured. In sham operation group, the abdomen was just opened, and then sutured. After recovery from anesthesia, the animals were subjected to normal diet, with free access to water. 2 days after surgery, the compound 16-4 (100 mg/kg) was intraperitoneally injected to 16-4 administration group, and normal saline was intraperitoneally injected to sham operation group and BDL model group, once a day. After administration for 14 days, samples such as urine, blood, bile, liver, kidney and ileum were collected from the animals after being fasted for 12 hours. […]

BDL model rat [4] = assay: Western blot of proteins associated with liver fibrosis in liver tissue of BDL rats; type: in vivo; settings: 100 mg/kg i.p., 14 days
Experimental: as §2, with “day.” for “day. After administration for 14 days, samples such as urine, blood, bile, liver, kidney and ileum were collected from the animals after being fasted for 12 hours.”
Liver tissues (80-100 mg) were taken from the rats of each group in Example 6, and 1 mL RAPI lysis solution (containing 1% PMSF) was added. […] The supernatant was taken, and the protein concentration was determined by BCA method. […]

BDL model rat [5] = assay: serum liver function in BDL model rat; type: in vivo; settings: 100 mg/kg i.p. once a day for 14 days
Experimental: (§3) SD male rats (with a body weight of 180-200 g) were randomly divided into sham operation group, BDL model group and 16-4 administration group, wherein sham operation group included 6 rats, BDL model group included 8 rats, and 16-4 administration group included 6 rats. Animals were fasted for 12 hours before surgery. After anesthetization with isoflurane, the abdomen of rat was opened under aseptic conditions, the liver was lifted, the duodenum was pulled aside, and 2-3 cm common bile duct was separate. Ligations were performed twice with silk thread No. 000 at the place proximal to duodenum and the place proximal to porta hepatis, respectively. The common bile duct was cut off at the middle of the two ligation places. After the liver was put back, the cut was sutured. In sham operation group, the abdomen was just opened, and then sutured. After recovery from anesthesia, the animals were subjected to normal diet, with free access to water. 2 days after surgery, the compound 16-4 (100 mg/kg) was intraperitoneally injected to 16-4 administration group, and normal saline was intraperitoneally injected to sham operation group and BDL model group, once a day. After administration for 14 days, samples such as urine, blood, bile, liver, kidney and ileum were collected from the animals after being fasted for 12 hours.
Blood samples were taken from rats of each group in Example 6, and the rats were fasted for 12 h before taking samples. The rats were anesthetized with 10% chloral hydrate, and blood was collected via aorta ventralis, on standing at room temperature for 1 h, and centrifuged at 3000 rpm for 5 min. The serum was tested for serum biochemical indexes.

[6] = test system: ANIT-induced liver injury; assay: alpha-naphthylisothiocyanate (ANIT)-induced liver injury model, HE staining; type: in vivo, mouse; settings: 400 mg/kg intragastric, ANIT 75 mg/kg, 48 h after induction
Experimental: After further administration for 2 days (i.e. after induction with ANIT for 48 h), liver tissues were harvested, and subjected to pathological section and HE staining.

BDL model rat [7] = assay: real-time PCR of genes associated with liver fibrosis in liver tissue of BDL rats; type: in vivo; settings: 100 mg/kg i.p., 14 days
Experimental: as §2, with “water.” for “water. 2 days after surgery, the compound 16-4 (100 mg/kg) was intraperitoneally injected to 16-4 administration group, and normal saline was intraperitoneally injected to sham operation group and BDL model group, once a day. After administration for 14 days, samples such as urine, blood, bile, liver, kidney and ileum were collected from the animals after being fasted for 12 hours.”
Liver tissues (80-100 mg) were taken from the rats of each group in Example 6, and 1 mL TRizol was added. […] The cDNA obtained, sterile water, Roche FastStart Universal Probe Master (Rox) and ABI TaqMan probes were used to prepare a 20 μL reaction system, which was analyzed by ABI 7500 Fast Real-Time PCR System.

BDL model rat [8] = assay: HE staining of liver tissue of BDL rats; type: in vivo; settings: 100 mg/kg i.p., 14 days
Experimental: as §3
The liver tissue samples were taken from rats of each group in Example 6, and the rats were fasted for 12 hours before taking samples. The rats were anesthetized with 10% chloral hydrate and the liver tissue was taken. The hepatic lobar tissue blocks were cut off and fixed in 4% neutral formaldehyde solution. By carrying out the steps such as dehydration, paraffin embedding, slicing and baking, paraffin slices were made. Hematoxylin-eosin (HE) staining solution was used for staining, and changes in pathological structure of rat liver tissue were observed.

BDL model rat [9] = assay: hydroxyproline content in liver tissue of BDL rats; type: in vivo; settings: 100 mg/kg i.p., 14 days
Experimental: as §2, with “water.” for “water. 2 days after surgery, the compound 16-4 (100 mg/kg) was intraperitoneally injected to 16-4 administration group, and normal saline was intraperitoneally injected to sham operation group and BDL model group, once a day. After administration for 14 days, samples such as urine, blood, bile, liver, kidney and ileum were collected from the animals after being fasted for 12 hours.”
(2) Hydroxyproline is specific to collagen fibrils, and the content of hydroxyproline can reflect the extent of liver fibrosis. Liver tissue samples (80-100 mg) were taken from the rats of each group in Example 6, and in accordance with the instruction of Hydroxyproline Assay Kit (purchased from Nanjing Jiancheng Bioengineering Institute), the content of hydroxyproline in the liver tissues was determined.

Row | SMILES | change in body weight (relative body weight Day 14/Day 1) (Kunming mice) | death (Kunming mice) | signs of intoxication (Kunming mice) | activity of COL1A1 promoter (relative luciferase activity) (COL1A1 promoter) | expression of COL1A1, TGF-β1, MMP2 and α-SMA protein (TGF-β1-induced LX2 cells [1]) | expression levels of mRNA of COL1A1, TGF-β1 and MMP2 (TGF-β1-induced LX2 cells [2]) | fibrosis of liver tissues (Masson staining) (BDL model rat [3]) | expression of COL1A1, TGF-β1, MMP2 and α-SMA protein (BDL model rat [4]) | liver function of BDL rats (BDL model rat [5]) | alanine aminotransferase ALT (BDL model rat [5]; serum, BDL rat, n = 6) [U/L] | alkaline phosphatase ALP (BDL model rat [5]; serum, BDL rat, n = 6) [U/L] | γ-glutamyltransferase γ-GGT (BDL model rat [5]; serum, BDL rat, n = 6) [U/L] | liver injury (HE staining of liver tissue slices) compared to ANIT-induced group [6] | expression of genes associated with liver fibrosis (COL1A1, TGF-β1, MMP2, α-SMA (ACTA2), TIMP1, TIMP2 and SPP1) (BDL model rat [7]) | bile duct proliferation (BDL model rat [8]) | pathological structure of the liver tissues (BDL model rat [8]) | tissue necrosis (BDL model rat [8]) | content of hydroxyproline in rat liver tissues (BDL model rat [9])
1 | O=C(Nc1ccc(Cl)c(Cl)c1)c1ccccc1NS(=O)(=O)c1cccc(OC(F)(F)F)c1 [17-15, N-(3,4-dichlorophenyl)-2-(3-trifluoromethoxybenzenesulfonamido) benzamide] | no significant decrease in body weight | no death occurred | no signs of intoxication were observed | inhibit the activity of COL1A1 promoter in a dose-dependent manner | significantly inhibit | significantly inhibit |  |  |  |  |  |  |  |  |  |  |  | 
2 | O=C(Nc1cc(Cl)c(Cl)c(Cl)c1)c1ccccc1NS(=O)(=O)c1cccc([N+](=O)[O-])c1 [16-4, N-(3,4,5-trichlorophenyl)-2-(3-nitrobenzenesulfonamido) benzamide] | no significant decrease in body weight | no death occurred | no signs of intoxication were observed | inhibit the activity of COL1A1 promoter in a dose-dependent manner | significantly inhibit | significantly inhibit | significantly inhibit the fibrosis of liver tissues | significantly inhibit | could improve the liver function | 68.20 ± 11.86 | 383.60 ± 56.45 | 27.40 ± 10.26 | had the liver injury improved | significantly reduce | significantly inhibited bile duct proliferation | significantly improve | significantly reduced tissue necrosis | significantly reduce
